Measured values reported in ChEMBL document CHEMBL3286303, “Synthesis and in vitro antiproliferative evaluation of novel N-alkylated 6-isobutyl- and propyl pyrimidine derivatives” (Bioorg Med Chem Lett, 2014).
The source made the active and inactive calls. No cut-off for these calls is given here.

Legend:
WI-38 [1] = assay: Cell cycle arrest in human WI38 cells as assessed as accumulation at G2/M phase at 1 uM after 48 hrs by propidium iodide staining-based flow cytometric analysis relative to control; conditions: wi-38, 48 h
SW-620 [2] = assay: Cell cycle arrest in human SW620 cells as assessed as accumulation at sub-G1 phase at 0.1 uM after 48 hrs by propidium iodide staining-based flow cytometric analysis relative to control; type: functional
K562 [3] = assay: Cell cycle arrest in human K562 cells as assessed as accumulation at S phase at 0.5 uM after 24 hrs by propidium iodide staining-based flow cytometric analysis relative to control; type: functional
MCF7 [4] = assay: Cell cycle arrest in human MCF7 cells as assessed as accumulation at S phase at 1 uM after 24 hrs by propidium iodide staining-based flow cytometric analysis relative to control; type: functional
WI-38 [5] = assay: Cell cycle arrest in human WI38 cells as assessed as accumulation at G1 phase at 1 uM after 48 hrs by propidium iodide staining-based flow cytometric analysis relative to control; conditions: wi-38, 48 h
WI-38 [6] = assay: Cell cycle arrest in human WI38 cells as assessed as accumulation at sub-G1 phase at 1 uM after 24 hrs by propidium iodide staining-based flow cytometric analysis relative to control; conditions: wi-38, 24 h
MCF7 [7] = assay: Cell cycle arrest in human MCF7 cells as assessed as accumulation at G1 phase at 1 uM after 24 hrs by propidium iodide staining-based flow cytometric analysis relative to control; type: functional
WI-38 [8] = assay: Cell cycle arrest in human WI38 cells as assessed as accumulation at S phase at 0.1 uM after 24 hrs by propidium iodide staining-based flow cytometric analysis relative to control; conditions: wi-38, 24 h
SW-620 [9] = assay: Cell cycle arrest in human SW620 cells as assessed as accumulation at G1 phase at 0.1 uM after 24 hrs by propidium iodide staining-based flow cytometric analysis relative to control; type: functional
MCF7 [10] = assay: Cell cycle arrest in human MCF7 cells as assessed as accumulation at G2/M phase at 0.1 uM after 24 hrs by propidium iodide staining-based flow cytometric analysis relative to control; type: functional
WI-38 [11] = assay: Cell cycle arrest in human WI38 cells as assessed as accumulation at G2/M phase at 1 uM after 24 hrs by propidium iodide staining-based flow cytometric analysis relative to control; conditions: wi-38, 24 h
K562 [12] = assay: Cell cycle arrest in human K562 cells as assessed as accumulation at S phase at 0.1 uM after 48 hrs by propidium iodide staining-based flow cytometric analysis relative to control; type: functional
K562 [13] = assay: Cell cycle arrest in human K562 cells as assessed as accumulation at S phase at 1 uM after 48 hrs by propidium iodide staining-based flow cytometric analysis relative to control; type: functional
K562 [14] = assay: Cell cycle arrest in human K562 cells as assessed as accumulation at G1 phase at 1 uM after 24 hrs by propidium iodide staining-based flow cytometric analysis relative to control; type: functional
K562 [15] = assay: Cell cycle arrest in human K562 cells as assessed as accumulation at G2/M phase at 0.1 uM after 48 hrs by propidium iodide staining-based flow cytometric analysis relative to control; type: functional
SW-620 [16] = assay: Cell cycle arrest in human SW620 cells as assessed as accumulation at S phase at 0.1 uM after 48 hrs by propidium iodide staining-based flow cytometric analysis relative to control; type: functional
HeLa [17] = assay: Antiadhesive activity against human HeLa cells at 5 uM after 2 to 24 hrs by crystal-violet staining-based microscopic analysis; type: functional, cell-based
BJ = assay: Antiadhesive activity against human BJ cells at 5 uM after 2 to 24 hrs by crystal-violet staining-based microscopic analysis; type: ADME, cell-based
SW-620 [18] = assay: Cell cycle arrest in human SW620 cells as assessed as accumulation at S phase at 1 uM after 48 hrs by propidium iodide staining-based flow cytometric analysis relative to control; type: functional
MCF7 [19] = assay: Cell cycle arrest in human MCF7 cells as assessed as accumulation at sub-G1 phase at 1 uM after 48 hrs by propidium iodide staining-based flow cytometric analysis relative to control; type: functional
MCF7 [20] = assay: Cell cycle arrest in human MCF7 cells as assessed as accumulation at G1 phase at 0.1 uM after 48 hrs by propidium iodide staining-based flow cytometric analysis relative to control; type: functional
K562 [21] = assay: Cell cycle arrest in human K562 cells as assessed as accumulation at sub-G1 phase at 0.5 uM after 48 hrs by propidium iodide staining-based flow cytometric analysis relative to control; type: functional
SW-620 [22] = assay: Cell cycle arrest in human SW620 cells as assessed as accumulation at G2/M phase at 1 uM after 24 hrs by propidium iodide staining-based flow cytometric analysis relative to control; type: functional
WI-38 [23] = assay: Cell cycle arrest in human WI38 cells as assessed as accumulation at sub-G1 phase at 0.1 uM after 48 hrs by propidium iodide staining-based flow cytometric analysis relative to control; conditions: wi-38, 48 h
MCF7 [24] = assay: Cell cycle arrest in human MCF7 cells as assessed as accumulation at S phase at 1 uM after 48 hrs by propidium iodide staining-based flow cytometric analysis relative to control; type: functional
MCF7 [25] = assay: Cell cycle arrest in human MCF7 cells as assessed as accumulation at G2/M phase at 1 uM after 48 hrs by propidium iodide staining-based flow cytometric analysis relative to control; type: functional
K562 [26] = assay: Cell cycle arrest in human K562 cells as assessed as accumulation at S phase at 0.5 uM after 48 hrs by propidium iodide staining-based flow cytometric analysis relative to control; type: functional
MCF7 [27] = assay: Antiadhesive activity against human MCF7 cells at 5 uM after 2 to 24 hrs by crystal-violet staining-based microscopic analysis; type: functional, cell-based
HepG2 = assay: Antiproliferative activity against human HepG2 cells after 72 hrs by MTT assay; type: functional, cell-based
WI-38 [28] = assay: Cell cycle arrest in human WI38 cells as assessed as accumulation at S phase at 1 uM after 48 hrs by propidium iodide staining-based flow cytometric analysis relative to control; conditions: wi-38, 48 h
MCF7 [29] = assay: Cell cycle arrest in human MCF7 cells as assessed as accumulation at S phase at 0.1 uM after 48 hrs by propidium iodide staining-based flow cytometric analysis relative to control; type: functional
K562 [30] = assay: Cell cycle arrest in human K562 cells as assessed as accumulation at G1 phase at 0.5 uM after 48 hrs by propidium iodide staining-based flow cytometric analysis relative to control; type: functional
SW-620 [31] = assay: Cell cycle arrest in human SW620 cells as assessed as accumulation at G2/M phase at 0.1 uM after 48 hrs by propidium iodide staining-based flow cytometric analysis relative to control; type: functional
MCF7 [32] = assay: Cell cycle arrest in human MCF7 cells as assessed as accumulation at G2/M phase at 0.1 uM after 48 hrs by propidium iodide staining-based flow cytometric analysis relative to control; type: functional
WI-38 [33] = assay: Cell cycle arrest in human WI38 cells as assessed as accumulation at sub-G1 phase at 1 uM after 48 hrs by propidium iodide staining-based flow cytometric analysis relative to control; conditions: wi-38, 48 h
K562 [34] = assay: Cell cycle arrest in human K562 cells as assessed as accumulation at G1 phase at 1 uM after 48 hrs by propidium iodide staining-based flow cytometric analysis relative to control; type: functional
HeLa [35] = assay: Antiproliferative activity against human HeLa cells after 72 hrs by MTT assay; type: functional, cell-based

With `COCn1c(CC(COCc2ccccc2)COCc2ccccc2)c(C)c(=O)n(COC)c1=O` as the molecule, how does the Activity (WI-38 [1]) read?
Its Activity is 3.5%.

What about the Activity (SW-620 [2]) of the same molecule?
The Activity was 6.8%.

And the Activity (K562 [3])?
The Activity was 5.6%.

And the Activity (MCF7 [4])?
The Activity was 8.1%.

What about the Activity (WI-38 [5]) of the same molecule?
The Activity was 45.5%.

And the Activity (WI-38 [6])?
The Activity was 21%.

What about the Activity (MCF7 [7]) of the same molecule?
Its Activity is 14.8%.

What about the Activity (WI-38 [8]) of the same molecule?
The Activity was 8.9%.

And the Activity (SW-620 [9])?
The Activity was 51.5%.

What about the Activity (MCF7 [10]) of the same molecule?
Its Activity is 7.1%.

And the Activity (WI-38 [11])?
Its Activity is 5.1%.

What about the Activity (K562 [12]) of the same molecule?
The Activity was 24.1%.

What about the Activity (K562 [13]) of the same molecule?
Its Activity is 25.9%.

What about the Activity (K562 [14]) of the same molecule?
Its Activity is 53%.

And the Activity (K562 [15])?
Its Activity is 23.5%.

And the Activity (SW-620 [16])?
The Activity was 25.6%.

And the Activity (HeLa [17])?
Its Activity is “Active”.

And the Activity (BJ)?
The Activity was “Toxic”.

And the Activity (SW-620 [18])?
Its Activity is 22%.

What about the Activity (MCF7 [19]) of the same molecule?
The Activity was 78.9%.

And the Activity (MCF7 [20])?
Its Activity is 23.8%.

And the Activity (K562 [21])?
The Activity was 15%.

And the Activity (SW-620 [22])?
The Activity was 20.1%.

What about the Activity (WI-38 [23]) of the same molecule?
Its Activity is 38.5%.

What about the Activity (MCF7 [24]) of the same molecule?
The Activity was 4.9%.

And the Activity (MCF7 [25])?
The Activity was 3.8%.

What about the Activity (K562 [26]) of the same molecule?
Its Activity is 18.2%.

What about the Activity (MCF7 [27]) of the same molecule?
Its Activity is “Active”.

What about the Activity (HepG2) of the same molecule?
Its Activity is “Dose-dependent effect”.

And the Activity (WI-38 [28])?
The Activity was 3.4%.

What about the Activity (MCF7 [29]) of the same molecule?
Its Activity is 11.9%.

What about the Activity (K562 [30]) of the same molecule?
Its Activity is 64.4%.

What about the Activity (SW-620 [31]) of the same molecule?
The Activity was 15.5%.

And the Activity (MCF7 [32])?
Its Activity is 9.5%.

What about the Activity (WI-38 [33]) of the same molecule?
Its Activity is 47.9%.

And the Activity (K562 [34])?
Its Activity is 51.8%.

And the Activity (HeLa [35])?
The Activity was “Dose-dependent effect”.

And the IC50 (HeLa [35])?
The IC50 was 300 nM.
